Measurements: patent publication US20120277161A1, “INHIBITION OF MULTIPLE CELL ACTIVATION PATHWAYS” (INTER-K PTY LIMITED, priority 2009, published 2012)
Each block holds one substance with its values, some of them ahead of it.

Experiments:
[1] = tested on: ADDP human ovarian carcinoma cell line; experiment: Cell proliferation (MTT) assay, ADDP cells; format: cell-based
Experimental: (§1) 6.1 Cell Proliferation (MTT) Assay Single cell suspensions of viable trypsinised cells were seeded into 96-well tissue culture plates at a density of 2×10^3 cells per well in a volume of 100 μl of a suitable culture media supplemented with heat inactivated foetal calf serum (FCS) (e.g., Dulbecco's Modified Eagles Medium (DMEM), with 10% v/v FCS, 1% L-glutamine, 2% (v/v) Hepes, and antibiotics). A set of triplicate wells was prepared for each concentration of the peptide dendrimer being tested. Additional sample wells containing untreated cells or media alone were set up in each treatment plate and processed in parallel as reference controls. A zero-time plate of untreated cells and media-alone wells was simultaneously prepared and an MTT assay carried out on this plate at the time of addition of the kinase inhibitor (i.e., polypeptide or dendrimer) to treatment plates. All plates were cultured for 24 hours before addition of the test dendrimer.
(§2) To prepare the MTT solution 100 mg of MTT (3-(4,5-dimethylthiazolyl-2)-2,5-diphenyltetrazolium bromide) (Cat #. M-128, Sigma, St Louis Mo.), is mixed with 20 ml of PBS at pH 7.4. The resulting solution is filter sterilized (0.2 μM syringe filter) and stored at 4° C. protected from light until use. MTT substrate is cleaved in growing cells to yield a water insoluble salt. After solubilisation of the salt crystals, a coloured product is produced the measurement of which allows quantitation of the proliferative activity of the cultured cells.
(§3) Appropriate concentrations of the kinase inhibitor were prepared by dilution of freshly prepared sterile 1 mM stock solutions into cell culture media to give a final well volume of 200 μl containing 10% v/v FCS. The zero-plate was processed by addition of MTT at this time. Cell culture was continued for a further 24 or 48 hours before addition of 20 μl of MTT in PBS (5 mg/ml, 0.2 um filter sterilised). The MTT cell proliferation assay measures cell proliferation rate and, in instances where cell viability is compromised, the assay indicates a comparative reduction in cell viability. After a 3 hour incubation in the presence of MTT (5% CO2 in air at 37° C.), plates were centrifuged at 450 g for 5 minutes, supernatant was removed by gentle suction and precipitated tetrazolium salt resuspended into 150 μl DMSO:glycine (0.1M glycine, 0.1M NaCl pH 10.5) (6:1 v/v) solution. Plates were gently vortexed to complete solubilisation of crystalline material and absorbance was read at 550 nm using a microplate reader. Sample data were processed to determine the comparative growth of treated samples relative to untreated controls.

[2] = tested on: HT29 human colon cancer cells; experiment: Cell proliferation (MTT) assay, HT29 cells; format: cell-based
Experimental: as §1, §2, §3
HT29 cells were cultured for 48 hours in the presence of selected dendrimers and proliferation of the cells was assessed by MTT assay essentially as described in Example 6.1. The results were calculated as percentage proliferation of control cells (not treated with dendrimer).

Substance: AAVALLPAVLLALLARSKAKNPLYR [IK2]
observed inhibition in combination with oxaliplatin versus calculated additive effect, ADDP cells ([1]; 5 μM or 10 μM IK2 peptide, FIGS. 7A, 7B): synergistic outcome
effect in combination with cisplatin versus calculated additive effect, ADDP cells ([1]; 30 μM IK2 peptide, FIG. 8): synergistic effect
inhibition of the growth of ADDP cancer cells in combination with cisplatin ([1]; compared to cisplatin or IK2 alone, FIG. 6): high level inhibition of the growth
inhibition of the growth of ADDP cancer cells in combination with oxaliplatin ([1]; compared to oxaliplatin or IK2 alone): high level inhibition of the growth
effect in combination with cisplatin versus calculated additive effect, HT29 cells ([2]; 30 μM IK2 peptide, FIG. 9): synergistic effect

IC50 ([2]; MTT, 48 hours): 1000 nM
Substance: dendrimer presenting 12 monomer units of the peptide RSKAKNPLYR [Dend 12-10(4)]
dendrimer concentration required for total kill, HT29 cells ([2]; MTT, 48 hours): 10 µM
inhibition of proliferation of HT29 cells ([2]; MTT, 48 hours): more effective than Dend 9-10(4)
